According to US11530244B2, “Cyclic polypeptides for PCSK9 inhibition” (priority 2018, dated 2022):
Starred links: 1 amine or outer side, 2 acyl side, 3 side chain; linkers in the order of their positions; H or OH if unused. Positions of bridges follow the written chain, without caps; N, C: chain ends. Non-standard residues stand in square brackets, D forms with d. Residues, ends and D or L forms follow the SMILES beside them. Naphthalene(2,6-diCH2) = c1cc2cc(C[*:2])ccc2cc1C[*:1]; Pro(trans-4-cHex) = O=C(O)[C@@H]1C[C@@H](C2CCCCC2)CN1; Pro(trans-4-Ph) = O=C(O)[C@@H]1C[C@@H](c2ccccc2)CN1; Trp(5-F) = N[C@@H](Cc1c[nH]c2ccc(F)cc12)C(=O)O; Pro(3R-Ph) = O=C(O)[C@H]1NCC[C@@H]1c1ccccc1; NMePhe(4-F) = CN[C@@H](Cc1ccc(F)cc1)C(=O)O; mXylylene(5-F) = Fc1cc(C[*:1])cc(C[*:2])c1; X4 = O=C(CCSCc1cccc(CSCCN[*:1])c1)[*:2]; Phe(4-Me) = Cc1ccc(C[C@H](N)C(=O)O)cc1; mXylylene = c1cc(C[*:1])cc(C[*:2])c1; X54 = c1cc2ccc(C[*:2])cc2cc1C[*:1]; NMeD = CN[C@@H](CC(=O)O)C(=O)O; NMeV = CN[C@H](C(=O)O)C(C)C; αMeP = C[C@@]1(C(=O)O)CCCN1; Pip = O=C(O)[C@@H]1CCCCN1; Orn = NCCC[C@H](N)C(=O)O; Aib = CC(C)(N)C(=O)O; Mpa = O=C(O)CCS; Sar = CNCC(=O)O

Molecular target: human PCSK9 / human LDLR EGFa domain interaction (Homo sapiens (Human), UniProt Q8NBP7)
Sequence (Q8NBP7 153-692): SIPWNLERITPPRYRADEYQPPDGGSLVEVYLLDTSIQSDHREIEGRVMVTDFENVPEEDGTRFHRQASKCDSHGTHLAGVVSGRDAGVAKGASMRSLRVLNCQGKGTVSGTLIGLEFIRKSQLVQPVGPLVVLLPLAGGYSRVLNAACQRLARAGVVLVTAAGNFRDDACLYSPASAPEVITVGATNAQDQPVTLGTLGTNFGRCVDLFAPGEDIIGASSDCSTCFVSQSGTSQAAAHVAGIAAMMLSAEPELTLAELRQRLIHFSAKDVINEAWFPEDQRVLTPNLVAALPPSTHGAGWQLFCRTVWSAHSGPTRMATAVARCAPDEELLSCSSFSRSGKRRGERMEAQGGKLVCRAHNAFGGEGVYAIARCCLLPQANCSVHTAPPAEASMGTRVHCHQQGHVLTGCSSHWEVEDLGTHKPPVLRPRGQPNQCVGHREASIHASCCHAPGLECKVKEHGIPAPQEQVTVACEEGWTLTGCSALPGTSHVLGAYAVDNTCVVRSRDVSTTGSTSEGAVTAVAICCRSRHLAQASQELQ
Sequence (Q8NBP7 31-152 partner): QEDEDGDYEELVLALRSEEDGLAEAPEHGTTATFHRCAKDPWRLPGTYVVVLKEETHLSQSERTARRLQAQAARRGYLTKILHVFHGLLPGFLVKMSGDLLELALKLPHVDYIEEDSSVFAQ
Experiment: TR-FRET assay of inhibition of the PCSK9-LDLR protein-protein interaction
Format: binding
Details: TR-FRET, 20 nM human PCSK9, 20 nM human LDLR EGFa domain, 2 hours room temperature; read-out: IC50
Method: A time-resolved fluorescence resonance energy (TR-FRET) assay was used to measure inhibition of the PCSK9-LDLR protein-protein interaction. Briefly, 20 nM avitag-biotinylated human PCSK9 was incubated with 20 nM his-tagged human LDLR EGFa domain in the presence of 5 nM LANCE Ulight Streptavidin (Perkin Elmer) and 5 nM europium-Anti-6×His (Perkin Elmer) for 2 hours covered at room temperature in buffer containing 50 mM HEPES, 150 mM NaCl, 5 mM CaCl2), 0.01% BSA and 0.01% Surfactant P20. Compounds were tested in dose-response and concentrations giving half-maximal inhibition calculated using a 4-parameter fit equation.

Row | SMILES | IC50 [µM]
1 | NCCCC[C@@H]1NC(=O)CCSCc2ccc3ccc(cc3c2)CSC[C@@H](C(N)=O)NC(=O)[C@@H]2CCCN2C(=O)[C@H](Cc2ccc(O)cc2)NC(=O)[C@H](Cc2c[nH]cn2)NC(=O)[C@H](CC(=O)O)NC(=O)[C@H](Cc2c[nH]c3ccc(F)cc23)NC(=O)[C@H](Cc2c[nH]c3ccc(F)cc23)NC(=O)CNC1=O [Compound 206] ([Mpa]KG[Trp(5-F)][Trp(5-F)]DHYPC-NH2; linker 1-10 via X54) | 21 to 50
2 | NCCCC[C@@H]1NC(=O)CCSCc2ccc3cc(ccc3c2)CSC[C@@H](C(N)=O)NC(=O)[C@@H]2CCCN2C(=O)[C@H](Cc2ccc(O)cc2)NC(=O)[C@H](Cc2c[nH]cn2)NC(=O)[C@H](CC(=O)O)NC(=O)[C@H](Cc2c[nH]c3ccc(F)cc23)NC(=O)[C@H](Cc2c[nH]c3ccc(F)cc23)NC(=O)CNC1=O [Compound 203] ([Mpa]KG[Trp(5-F)][Trp(5-F)]DHYPC-NH2; linker 1-10 via Naphthalene(2,6-diCH2)) | 1 to 12.1
3 | NCCCC[C@@H]1NC(=O)CCSCc2cccc(c2)CSC[C@@H](C(N)=O)NC(=O)[C@@H]2CCCN2C(=O)[C@@H](Cc2ccc(O)cc2)NC(=O)[C@H](Cc2cnc[nH]2)NC(=O)[C@H](CC(=O)O)NC(=O)[C@H](Cc2c[nH]c3ccc(F)cc23)NC(=O)[C@H](Cc2c[nH]c3ccc(F)cc23)NC(=O)CNC1=O [Compound 164] ([Mpa]KG[Trp(5-F)][Trp(5-F)]DH[dY]PC-NH2; linker 1-10 via mXylylene) | 21 to 50
4 | CN1CC(=O)N[C@@H](Cc2c[nH]c3ccccc23)C(=O)N[C@@H](Cc2c[nH]c3ccccc23)C(=O)N(C)[C@@H](CC(=O)O)C(=O)N[C@@H](Cc2c[nH]cn2)C(=O)N[C@@H](Cc2ccc(O)cc2)C(=O)N2CCC[C@H]2C(=O)N[C@H](C(N)=O)CSCc2cccc(c2)CSCCC(=O)N[C@@H](CCCCN)C1=O [Compound 222] ([Mpa]K[Sar]WW[NMeD]HYPC-NH2; linker 1-10 via mXylylene) | 21 to 50
5 | CC1(C)NC(=O)[C@H](Cc2cnc[nH]2)NC(=O)[C@H](CC(=O)O)NC(=O)[C@H](Cc2c[nH]c3ccc(F)cc23)NC(=O)[C@H](Cc2c[nH]c3ccc(F)cc23)NC(=O)CNC(=O)[C@H](CCCCN)NC(=O)CCSCc2cccc(c2)CSC[C@@H](C(N)=O)NC(=O)[C@@H]2CCCN2C1=O [Compound 318] ([Mpa]KG[Trp(5-F)][Trp(5-F)]DH[Aib]PC-NH2; linker 1-10 via mXylylene) | 0.0001 to 0.1
6 | NCCCC[C@@H]1NC(=O)CCSCc2cccc(c2)CSC[C@@H](C(N)=O)NC(=O)[C@@H]2CCCN2C(=O)[C@H](Cc2ccc(O)cc2)NC(=O)[C@@H](Cc2cnc[nH]2)NC(=O)[C@H](CC(=O)O)NC(=O)[C@H](Cc2c[nH]c3ccc(F)cc23)NC(=O)[C@H](Cc2c[nH]c3ccc(F)cc23)NC(=O)CNC1=O [Compound 163] ([Mpa]KG[Trp(5-F)][Trp(5-F)]D[dH]YPC-NH2; linker 1-10 via mXylylene) | 21 to 50
7 | COc1ccc(C[C@@H]2NC(=O)[C@@H]3CCCC/C=C/CO[C@H]4C[C@@H](C(=O)N3)N(C4)C(=O)[C@H](Cc3c[nH]c4ccc(F)cc34)NC(=O)[C@H](Cc3c[nH]c4ccc(F)cc34)NC(=O)[C@@H](C)NC(=O)[C@H](CCCCN)NC(=O)CCSCc3cccc(c3)CSC[C@@H](C(N)=O)NC(=O)[C@]3(C)CCCN3C2=O)cc1 [Compound 508] | 0.1 to 1
8 | CC(=O)N[C@H]1CCC(=O)NCCC[C@@H](C(N)=O)NC(=O)[C@@H]2CCCN2C(=O)[C@H](Cc2ccc(O)cc2)NC(=O)[C@H](Cc2c[nH]cn2)NC(=O)[C@H](CC(=O)O)NC(=O)[C@H](Cc2c[nH]c3ccc(F)cc23)NC(=O)[C@H](Cc2c[nH]c3ccc(F)cc23)NC(=O)CNC(=O)[C@H](CCCCN)NC1=O [Compound 179] (Ac-EKG[Trp(5-F)][Trp(5-F)]DHYP[Orn]-NH2; lactam 1-10) | 1 to 12.1
9 | NCCCC[C@@H]1NC(=O)CCSCc2cccc(c2)CSC[C@@H](C(N)=O)NC(=O)[C@@H]2C[C@@H](c3ccccc3)CN2C(=O)[C@H](Cc2ccc(O)cc2)NC(=O)[C@H](Cc2c[nH]cn2)NC(=O)[C@H](CC(=O)O)NC(=O)[C@H](Cc2c[nH]c3ccc(F)cc23)NC(=O)[C@H](Cc2c[nH]c3ccc(F)cc23)NC(=O)CNC1=O [Compound 293] ([Mpa]KG[Trp(5-F)][Trp(5-F)]DHY[Pro(trans-4-Ph)]C-NH2; linker 1-10 via mXylylene) | 0.0001 to 0.1
10 | Cc1ccc(C[C@@H]2NC(=O)[C@H](Cc3c[nH]cn3)NC(=O)[C@H](CC(=O)O)NC(=O)[C@H](Cc3c[nH]c4ccc(F)cc34)NC(=O)[C@H](Cc3c[nH]c4ccc(F)cc34)NC(=O)[C@@H](C)NC(=O)[C@H](CCCCN)NC(=O)CCSCc3cccc(c3)CSCCNC(=O)[C@]3(C)CCCN3C2=O)cc1 [Compound 299] (cyclo(DH[Phe(4-Me)][αMeP][X4]K[dA][Trp(5-F)][Trp(5-F)])) | 0.1 to 1
11 | CC(=O)N[C@H]1CSCc2cccc(c2)CSC[C@@H](C(N)=O)NC(=O)[C@@H]2CCCN2C(=O)[C@H](Cc2ccc(O)cc2)NC(=O)[C@H](Cc2cnc[nH]2)NC(=O)[C@H](CC(=O)O)NC(=O)[C@H](Cc2c[nH]c3ccccc23)NC(=O)[C@H](Cc2c[nH]c3ccc(F)cc23)NC(=O)CNC(=O)[C@H](CCCCN)NC1=O [Compound 177] (Ac-CKG[Trp(5-F)]WDHYPC-NH2; linker 1-10 via mXylylene) | 21 to 50
12 | NCCCC[C@@H]1NC(=O)CCSCc2cccc(c2)CSC[C@@H](C(N)=O)NC(=O)[C@@H]2C[C@@H](C3CCCCC3)CN2C(=O)[C@H](Cc2ccc(O)cc2)NC(=O)[C@H](Cc2c[nH]cn2)NC(=O)[C@H](CC(=O)O)NC(=O)[C@H](Cc2c[nH]c3ccc(F)cc23)NC(=O)[C@H](Cc2c[nH]c3ccc(F)cc23)NC(=O)CNC1=O [Compound 304] ([Mpa]KG[Trp(5-F)][Trp(5-F)]DHY[Pro(trans-4-cHex)]C-NH2; linker 1-10 via mXylylene) | 21 to 50
13 | NCCCC[C@@H]1NC(=O)CCSCc2cccc(c2)CSC[C@@H](C(N)=O)NC(=O)[C@@H]2CCCCN2C(=O)[C@H](Cc2ccc(O)cc2)NC(=O)[C@H](Cc2cnc[nH]2)NC(=O)[C@H](CC(=O)O)NC(=O)[C@H](Cc2c[nH]c3ccc(F)cc23)NC(=O)[C@H](Cc2c[nH]c3ccc(F)cc23)NC(=O)CNC1=O [Compound 208] ([Mpa]KG[Trp(5-F)][Trp(5-F)]DHY[Pip]C-NH2; linker 1-10 via mXylylene) | 21 to 50
14 | C[C@@]12CCCN1C(=O)[C@H](Cc1ccc(O)cc1)NC(=O)[C@H](Cc1cnc[nH]1)NC(=O)[C@H](CC(=O)O)NC(=O)[C@H](Cc1c[nH]c3ccc(F)cc13)NC(=O)[C@H](Cc1c[nH]c3ccc(F)cc13)NC(=O)CNC(=O)[C@H](CCCCN)NC(=O)CCSCc1cc(F)cc(c1)CSC[C@@H](C(N)=O)NC2=O [Compound 287] ([Mpa]KG[Trp(5-F)][Trp(5-F)]DHY[αMeP]C-NH2; linker 1-10 via mXylylene(5-F)) | 21 to 50
15 | CC1(C)NC(=O)[C@H](Cc2c[nH]c3ccc(F)cc23)NC(=O)CNC(=O)[C@H](CCCCN)NC(=O)CCSCc2cccc(c2)CSC[C@@H](C(N)=O)NC(=O)[C@@H]2CCCN2C(=O)[C@H](Cc2ccc(O)cc2)NC(=O)[C@H](Cc2cnc[nH]2)NC(=O)[C@H](CC(=O)O)NC1=O [Compound 317] ([Mpa]KG[Trp(5-F)][Aib]DHYPC-NH2; linker 1-10 via mXylylene) | 21 to 50
16 | CC(C)[C@H]1C(=O)N[C@H](C(N)=O)CSCc2cccc(c2)CSCCC(=O)N[C@@H](CCCCN)C(=O)NCC(=O)N[C@@H](Cc2c[nH]c3ccc(F)cc23)C(=O)N[C@@H](Cc2c[nH]c3ccc(F)cc23)C(=O)N[C@@H](CC(=O)O)C(=O)N[C@@H](Cc2cnc[nH]2)C(=O)N[C@@H](Cc2ccc(O)cc2)C(=O)N1C [Compound 220] ([Mpa]KG[Trp(5-F)][Trp(5-F)]DHY[NMeV]C-NH2; linker 1-10 via mXylylene) | 21 to 50
17 | CC(=O)N(C)[C@@H](Cc1ccc(F)cc1)C(=O)N[C@H]1CSCc2cccc(c2)CSC[C@@H](C(N)=O)NC(=O)[C@@H]2CCCN2C(=O)[C@H](Cc2ccc(O)cc2)NC(=O)[C@H](Cc2cnc[nH]2)NC(=O)[C@H](CC(=O)O)NC(=O)[C@H](Cc2c[nH]c3ccc(F)cc23)NC(=O)[C@H](Cc2c[nH]c3ccc(F)cc23)NC(=O)CNC(=O)[C@H](CCCCN)NC1=O [Compound 147] (Ac-[NMePhe(4-F)]CKG[Trp(5-F)][Trp(5-F)]DHYPC-NH2; linker 2-11 via mXylylene) | 0.1 to 1
18 | NCCCC[C@@H]1NC(=O)CCSCc2cccc(c2)CSC[C@@H](C(N)=O)NC(=O)[C@@H]2CCCN2C(=O)[C@@H]2[C@@H](c3ccccc3)CCN2C(=O)[C@H](Cc2c[nH]cn2)NC(=O)[C@H](CC(=O)O)NC(=O)[C@H](Cc2c[nH]c3ccc(F)cc23)NC(=O)[C@H](Cc2c[nH]c3ccc(F)cc23)NC(=O)CNC1=O [Compound 326] ([Mpa]KG[Trp(5-F)][Trp(5-F)]DH[Pro(3R-Ph)]PC-NH2; linker 1-10 via mXylylene) | 1 to 12.1
19 | NCCCC[C@@H]1NC(=O)CCCCCn2cc(nn2)CCC[C@@H](C(N)=O)NC(=O)[C@@H]2CCCN2C(=O)[C@H](Cc2ccc(O)cc2)NC(=O)[C@H](Cc2c[nH]cn2)NC(=O)[C@H](CC(=O)O)NC(=O)[C@H](Cc2c[nH]c3ccc(F)cc23)NC(=O)[C@H](Cc2c[nH]c3ccc(F)cc23)NC(=O)CNC1=O [Compound 154] | 1 to 12.1
20 | C[C@H]1NC(=O)[C@H](CC(=O)O)NC(=O)[C@H](Cc2c[nH]c3ccc(F)cc23)NC(=O)[C@H](Cc2c[nH]c3ccc(F)cc23)NC(=O)CNC(=O)[C@H](CCCCN)NC(=O)CCSCc2cccc(c2)CSC[C@@H](C(N)=O)NC(=O)[C@]2(C)CCCN2C(=O)[C@H](Cc2ccc(O)cc2)NC1=O [Compound 033] ([Mpa]KG[Trp(5-F)][Trp(5-F)]D[dA]Y[αMeP]C-NH2; linker 1-10 via mXylylene) | 1 to 12.1
